Test results from US7531320B2, “Modulation of β-catenin/TCF-activated transcription” (priority 2003, dated 2009).

Columns and labels:
cyclin D1 [1] = assay: Real Time RT-PCR in SW480 cells, cyclin D1; format: cell-based, human; details: 25 μM; for ΔCT cyclin D1: relative to β-actin
Description: The RNeasy Midi Kit (Qiagen) was used for RNA extraction and Real Time RT-PCR was performed according to the protocol provided with the SYBR Green PCR Master Mix Kit (Perkin Elmer Biosystems, Shelton, Conn.). The primers used for cyclin D1, axin2, hnkd, c-myc, c-jun, and fra-1 amplifications were: cyclin D1 forward primer:5′-[…]-CCTGCTG-3′ (SEQ ID NO: 32) reverse primer: 5′-[…]-3′ (SEQ ID NO: 33) leading to a product size of approximately 300 bp; axin2 forward primer: 5′-[…] GGAAA-CT-3′ (SEQ ID NO: 34) and reverse primer: 5′-[…]-GAGA-3′ (SEQ ID NO: 35); hnkd forward primer: 5′-[…] TTGCGT-3′ (SEQ ID NO: 36) and the reverse primer: 5′-[…] ACGT-3′ (SEQ ID NO: 37); c-myc forward primer: 5′-GAA-[…] CTGC-3′ (SEQ ID NO: 38) and reverse primer: 5′-[…]-G-3′ (SEQ ID NO: 39); c-jun forward primer: 5′-[…]-3′ (SEQ ID NO: 40) and reverse primer: 5′-[…]-3′ (SEQ ID NO: 41); fra-1 forward primer: 5′-ACC-[…]-[…]-3′ (SEQ ID NO: 42) and reverse primer: 5′-[…]-TT-3′ (SEQ ID NO: 43). β-actin was used for normalization. […]
1 μg of mRNA, for each time point, was subjected to Real Time RT-PCR. Expression level of endogenous cyclin D1, c-myc, fibronectin, hnkd, axin2, c-jun, and BMP-4 were measured relative to β-actin. Quantitation of The ΔCycle of Threshold (CT) values was determined by subtracting the average values of each set by the corresponding average values obtained for β-actin. […]
The cyclin D1 gene is inappropriately expressed in many different tumor types, and is known to be a direct target of the Wnt/β-catenin pathway (Shtutman et al., “The cyclin D1 gene is a target of the beta-catenin/LEF-1 pathway,” Proc. Natl. Acad. Sci. USA 96:5522-27 (1999); Tetsu et al., “Beta-catenin regulates expression of cyclin D1 in colon carcinoma cells,” Nature 398:422-26 (1999)). […] Expression level of endogenous cyclin D1, c-myc, fibronectin, hnkd, axin2, c-jun, and BMP-4 were measured relative to β-actin. Quantitation of The ΔCycle of Threshold (CT) values was determined by subtracting the average values of each set by the corresponding average values obtained for β-actin. […]

cyclin D1 [2] = assay: Western blot of Cyclin D1 in SW480 whole cell lysates; format: cell-based, human; details: SW480 cells, 25 μM, beginning at 4 hours, increasing at 24 hours
Description: FIG. 5. COMPOUND 1 inhibits the expression of cyclin D1. • A. Cyclin D1 levels are decreased with COMPOUND 1 treatment. Western blot analysis was performed on 25 μg of SW480 whole cell lysates treated for 4, 8, or 24 hours with either 25 μM of COMPOUND 1 or control (0.5% DMSO). Immunoblotting was performed using anti-Cyclin D1 antibodies (Santa Cruz Biotechnology Inc.). • B. In vivo occupancy of cyclin D1 and c-myc promoters by CBP and p300. […] ChIP assays were performed on promoter of c-myc from SW480 cells which was treated for 8 hours with COMPOUND 1 (25 μM) or control (0.5% DMSO). CBP (AC-26, a generous gift from Dr. David Livingston, Harvard University, Boston, Mass.) or p300 (C-20, Santa Cruz Biotechnology Inc.) specific antibodies were used to evaluate the promoter occupancy by CBP or p300 in presence of COMPOUND 1 or control (DMSO) treatment.
Immune complexes, from above, were separated on SDS-PAGE followed by transfer to immobilon-P membranes (PVDF) from (Millipore, Bedford, Mass.). […] Immunoblots were analyzed using an ECL detection kit (Amersham Pharmacia Biotech).
The β-actin gene was used to normalize the data. The ΔCycle of Threshold (CT) values were determined by subtracting the average values of each set from the corresponding average values obtained for the β-actin gene. […] Cyclin D1 protein levels in cells were also evaluated. […]

`O=C1C(Cc2ccc(O)cc2)N2C(=O)CCN(C(=O)NCc3ccccc3)C2CN1Cc1cccc2ccccc12` (stereo not shown) [COMPOUND 1] was tested, and the “mRNA cyclin D1 (direction)” value (cyclin D1 [1]) was “↓”, the “ΔCT cyclin D1” value (cyclin D1 [1]; 4 hours) was 0.6 and the “ΔCT cyclin D1” value (cyclin D1 [1]; 24 hours) was 3.1. The “Level of Cyclin D1 protein” value (cyclin D1 [2]) was “clear reduction”.
